Data published in patent publication US20250034139A1, “AMINE COMPOUNDS HAVING ANTI-INFLAMMATORY, ANTIFUNGAL, ANTIPARASITIC, AND ANTICANCER ACTIVITY” (PHARMA CINQ, LLC, priority 2013, published 2025).
Converted amounts (≈) assume the structure as drawn. Read-outs that look alike come from different tables or passages of the source.

Tests used:
Rhizopus strains = assay: Example N: MIC and MFC (CLSI) against Rhizopus; type: cell-based, Rhizopus spp.; settings: for MIC50 / MIC: Rhizopus; for MFC: range over Rhizopus strains, in 48 hr
Experimental: (§1) The objective of this study was to determine the antifungal activity of eight experimental compounds against a representative panel of fungal isolates, including Candida albicans, C. glabrata, Cryptococcus neoformans, Trichophyton rubrum, Aspergillus fumigatus, and Rhizopus spp. Antifungal activity was measured by minimum inhibitory concentration (MIC) and minimum fungicidal concentration (MFC).
(§2) Three recent clinical strains of each species, taken from the culture collection at the Center for Medical Mycology, Case Western University, were tested.
(§3) Compounds in powder form were dissolved in DMSO. Serial dilutions of each compound were then prepared in RPMI-1640 in a range of […].
(§4) MIC testing was performed according to the CLSI M27-A3 and M38-A2 standards for the susceptibility testing of yeasts and filamentous fungi, respectively (1, 2). Test isolates were subcultured from frozen slants onto potato dextrose agar plates (Trichophyton rubrum was subcultured onto oatmeal plates for conidia production) and checked for purity. Inocula were then prepared in RPMI-1640 (YNB for Cryptococcus) to a concentration of 0.5-2.5×10^3 colony-forming units (CFU)/ml or 0.4-5×10^4 conidia/ml for yeast and filamentous fungi, respectively.
(§5) MFC determinations were performed according to the modifications previously described by Canton et al. and Ghannoum and Isham. (3, 4) Specifically, the total contents of each clear well from the MIC assay were subcultured onto potato dextrose agar. To avoid antifungal carryover, the aliquots were allowed to soak into the agar and then were streaked for isolation once dry, thus removing the cells from the drug source.

[1] = test system: Cryptococcus neoformans (serotype A); assay: Example L: Cryptococcus neoformans (serotype A) growth inhibition; type: cell-based; settings: Cryptococcus neoformans; for MIC: read-out: MIC, uM (concentration for maximum - 99% of inhibition)
Experimental: Cryptococcus neoformans (serotype A) were plated in 96 well plates with 144 μl/well of 5×10e5 CFU/ml in YPD growth medium. Diluted compounds were then added to each well with concentration ranged from 0.05 to 10 μM as final concentration in duplicates. The plates were inoculated at 30° C. Two readings of OD at 600 nm were measured after 18 hr and […] treatments.
C12-imidazol had relative weak activity against Cryptococcus serotype A at low concentration. Data plotted was based on 26 hour reading because 18 hour reading was too low.
• 1. Pick a single colony of Cryptococcus from the Sabouraud Dextrose agar plate using the inoculum loop and inoculate into a 125 ml flask containing 25 ml of YPD growth medium • 2. Incubate at 30° C. with shaking at 220 rpm for 24 hours with loosen lid to allow air in and facilitates growth. • 3. Examine an aliquot of the culture under a microscope for yeast cell morphology and lack of bacterial contamination. • 4. Dilute the overnight culture with YPD medium at 1:100 dilution and count the number of cells as 8×10^6 cfu/ml. • 5. Make a final concentration of cells suspension at 5×10^5 cfu/ml in YPD medium after the stock culture had been stored at 4° C. for 3 days. • 6. Plate 144 μl/well of 5×10^5 cfu/ml cell suspension on 96-well plates. Part-II: Cryptococcus Growth Inhibition Testing with Compounds • 1. From 10 mM DMSO stock solutions, make serial dilutions of compounds to 0.0013, 0.0025, 0.0125, 0.025, 0.05, 0.125 and 0.25 mM solution • 2. Add 6 ul each of diluted compound solutions per well in duplicates. The final concentrations were 0, 0.05, 0.1, 0.5, 1.0, 2.0, 5.0 and 10 micromolar. • 3. Incubated all plates at 30° C. overnight with 175 rpm shaking. • 4. Read absorbance at OD600 after 18 and 26 hours for each plate. • 5. Calculated the % inhibition and IC50 of each compound against the untreated cell.

Candida glabrata strains = assay: Example N: MIC and MFC (CLSI) against Candida glabrata; type: cell-based; settings: for MIC50 / MIC / MFC: Nakaseomyces glabratus; for MIC: read-out: MIC 100%; for MFC: range over Candida glabrata strains, in 48 hr
Experimental: as §1, §2, §3, §4, §5

[2] = test system: imiquimod-induced dermatitis
Experimental: Topical imiquimod (IMQ), a toll-like receptor agonist, has been established as a model of Inflammatory skin diseases including psoriasis and atopic dermatitis. Dermal inflammatory changes and gene expression in mice treated with topical imiquimod mimic human psoriasis and dermatitis (van der Fits et al., 2009; Swindell et al., 2011). The effect of a set of compounds of the invention were tested in a mouse model of imiquimod-induced dermatitis, with topical tacrolimus and dexamethasone as comparators for assessing safety and efficacy relative to standard agents used to treat dermatitis in humans.
Commercial 0.1% tacrolimus ointment (ProTopic™[…]) was also used as an active comparator. Petrolatum containing 10% ethanol was used as a control treatment.
Female Balb/C mice (8 weeks old) were randomized and divided into groups of 5 animals each. Polyethylene collars were affixed to the mice to prevent them from easily scratching their ears. 5% imiquimod was applied to both ears of each mouse (20 microliters per ear) daily for 5 days, and then every other day for the full duration of the study. […] On day 7 after initiation of imiquimod, treatment with topical agents was started. Both ears of each mouse were treated with test ointments, with one compound per mouse.
Ear thickness and PASI assessments (Psoriasis Area and Severity Index, a standard psoriasis scoring system) were recorded twice per week throughout the study. The PASI score comprises the sum of evaluations of swelling, erythema and scaling on scales from 0 to 4; the maximum PASI score is 12, and the minimum, in unaffected skin, is 0).

[3] = Macrophage, direct inhibition, values of the earlier study (Table 25), read-out: IC50 value (μM) for inhibition of fungal growth, No macrophages
[4] = OD of 26 hour reading, 30° C., XLfit
[5] = read-out: IC50, uM (concentration for 50% of inhibition), OD of 26 hour reading, 30° C., XLfit

Compound | MIC [1, 4] [µM] | IC50 [1, 5] [µM] | MIC at 100% inhibition (Rhizopus strains; 24 hrs) [µg/mL] | MIC50 (Rhizopus strains; 24 h) [µg/mL] | MIC (Rhizopus strains; 24 h, read-out: MIC 100%) [µg/mL] | MIC50 (Rhizopus strains; 48 h) [µg/mL] | MIC (Rhizopus strains; 48 h, read-out: MIC 100%) [µg/mL] | MFC (Rhizopus strains) [µg/mL] | IC50 [1, 3] [µM] | MIC50 (Candida glabrata strains; 24 h) [µg/mL] | MIC (Candida glabrata strains; 24 h) [µg/mL] | MIC50 (Candida glabrata strains; 48 h) [µg/mL] | MIC (Candida glabrata strains; 48 h) [µg/mL] | MFC (Candida glabrata strains) [µg/mL] | also measured
CCCCCCOc1cccc(CNc2ccnc3ccccc23)c1 [Compound AC, N-[3-(Hexyloxy)benzyl]quinolin-4-amine] | 12.6 (≈ 4.2 µg/mL) | – | 0.5 (≈ 1.49 µM) | 0.12 to 0.25 (≈ 0.359 to 0.747 µM) | 0.5 (≈ 1.49 µM) | 0.5 (≈ 1.49 µM) | 0.5 to 1 (≈ 1.49 to 2.99 µM) | 16 to 64 (≈ 47.8 to 191 µM) | 1.15 | 0.5 to 1 (≈ 1.49 to 2.99 µM) | 1 to 2 (≈ 2.99 to 5.98 µM) | 1 to 2 (≈ 2.99 to 5.98 µM) | 2 to 4 (≈ 5.98 to 12 µM) | 4 to 8 (≈ 12 to 23.9 µM) | MIC at 50% inhibition (Rhizopus strains; 24 hrs): <0.12-0.25; MIC (Rhizopus strains; read-out: MIC at 50% inhibition, 48 hr): 0.5 µg/mL (≈ 1.49 µM); MIC (Rhizopus strains; read-out: MIC at 100% inhibition, 48 hr): 0.5 to 1 µg/mL (≈ 1.49 to 2.99 µM); cidal activity (MFC within 4 dilutions of the MIC), in words (Candida glabrata strains; 3 strains): cidal against all of the C. glabrata strains tested; Ear thickness, Mean ± SEM ([2]; imiquimod-treated mice, topical ointment 0.06% active drug (dexamethasone 0.03%, tacrolimus 0.1%)): 0.501 ± 0.030; Body Weight (mean ± SEM), Final ([2]; mouse, in vivo): 21.3 ± 0.6 g; Body Weight (mean ± SEM), Initial ([2]; mouse, in vivo): 21.1 ± 0.7 g; D BW (g) ([2]; mouse, in vivo): +0.2 g; PASI Score, Mean ± SEM ([2]; scale 0-12, topical ointment 0.06% active drug (dexamethasone 0.03%, tacrolimus 0.1%)): 7.150 ± 0.221
CCCCCCOCCCCCCCCNc1ccnc2c(Cl)cccc12 [Compound AX, 8-Chloro-N-[8-(hexyloxy)octyl]quinolin-4-amine] | 17.3 (≈ 6.76 µg/mL) | 0.91 | – | 0.5 to 1 (≈ 1.28 to 2.56 µM) | 1 to 2 (≈ 2.56 to 5.12 µM) | 1 (≈ 2.56 µM) | 1 to 2 (≈ 2.56 to 5.12 µM) | > 64 | – | 2 (≈ 5.12 µM) | 8 (≈ 20.5 µM) | 8 (≈ 20.5 µM) | 8 (≈ 20.5 µM) | 8 to 64 (≈ 20.5 to 164 µM) | –
CCCCOCCCCCCCCCCNc1ccnc2ccccc12 [AM, N-(10-Butoxydecyl)quinolin-4-amine] | 10.5 (≈ 3.75 µg/mL) | 1.57 | – | 1 to 2 (≈ 2.8 to 5.61 µM) | 2 to 4 (≈ 5.61 to 11.2 µM) | 2 to 4 (≈ 5.61 to 11.2 µM) | 4 (≈ 11.2 µM) | 8 to 32 (≈ 22.4 to 89.7 µM) | 1.57 | 1 to 2 (≈ 2.8 to 5.61 µM) | 2 to 4 (≈ 5.61 to 11.2 µM) | 2 to 4 (≈ 5.61 to 11.2 µM) | 2 to 4 (≈ 5.61 to 11.2 µM) | 4 to 8 (≈ 11.2 to 22.4 µM) | –

Second part, led by results:

MIC [1, 4] [µM] | IC50 [1, 5] [µM] | Compound | MIC at 100% inhibition (Rhizopus strains; 24 hrs) [µg/mL] | MIC50 (Rhizopus strains; 24 h) [µg/mL] | MIC (Rhizopus strains; 24 h, read-out: MIC 100%) [µg/mL] | MIC50 (Rhizopus strains; 48 h) [µg/mL] | MIC (Rhizopus strains; 48 h, read-out: MIC 100%) [µg/mL] | MFC (Rhizopus strains) [µg/mL] | IC50 [1, 3] [µM] | MIC50 (Candida glabrata strains; 24 h) [µg/mL] | MIC (Candida glabrata strains; 24 h) [µg/mL] | MIC50 (Candida glabrata strains; 48 h) [µg/mL] | MIC (Candida glabrata strains; 48 h) [µg/mL] | MFC (Candida glabrata strains) [µg/mL] | also measured
12 (≈ 3.43 µg/mL) | 0.39 | CCCCCCCCCCNc1ncnc2ccccc12 [Compound AH, N-(Decyl)quinazolin-4-amine] | 2 (≈ 7.01 µM) | 0.25 to 0.5 (≈ 0.876 to 1.75 µM) | 2 (≈ 7.01 µM) | 2 (≈ 7.01 µM) | 2 (≈ 7.01 µM) | 64 (≈ 224 µM) | 0.39 | 2 (≈ 7.01 µM) | 4 to 8 (≈ 14 to 28 µM) | 4 to 8 (≈ 14 to 28 µM) | 4 to 8 (≈ 14 to 28 µM) | 8 to 64 (≈ 28 to 224 µM) | MIC at 50% inhibition (Rhizopus strains; 48 hr): 2 µg/mL (≈ 7.01 µM); MIC at 100% inhibition (Rhizopus strains; 48 hr): 2 µg/mL (≈ 7.01 µM)
19.5 (≈ 6.54 µg/mL) | 0.25 | CCCCCCOc1cccc(CNc2ncnc3ccccc23)c1 [AK, N-[3-(Hexyloxy)benzyl]quinazolin-4-amine] | – | – | – | – | – | – | – | – | – | – | – | – | –
